This passage reports IC50 and Ki results from ChEMBL document CHEMBL1909046, “DrugMatrix in vitro pharmacology data”.

SMILES strings stand for the structures.

System in one test: not listed separately
The test can be described thus: DRUGMATRIX: beta-Lactamase enzyme inhibition (substrate: Nitrocefin). Set-up: species or system Bacillus cereus. Particulars: Not Active = under 50% inhibition at 10 µM.
In the case of `NC(=O)NO` [HYDROXYUREA], the IC50 result was “Not Active” and the Ki result is reported as “Not Active”.

Turning to `CC(C)Cc1ccc(C(C)C(=O)O)cc1` (stereo not given) [IBUPROFEN], the IC50 result is reported as “Not Active” and the Ki result is “Not Active”.

With `COc1ccc2c(c1)c(CC(=O)O)c(C)n2C(=O)c1ccc(Cl)cc1` [INDOMETHACIN], the IC50 entry is recorded as “Not Active” and the Ki result was “Not Active”.

`CCc1c2c(nc3ccc(OC(=O)N4CCC(N5CCCCC5)CC4)cc13)-c1cc3c(c(=O)n1C2)COC(=O)[C@]3(O)CC` [IRINOTECAN]: the IC50 entry was “Not Active” and the Ki result is reported as “Not Active”.

Regarding `CC(C(=O)O)c1cccc(C(=O)c2ccccc2)c1` (stereo not given) [KETOPROFEN], the IC50 result was “Not Active” and the Ki result is reported as “Not Active”.

`Nc1ccn([C@@H]2CS[C@H](CO)O2)c(=O)n1` [LAMIVUDINE]: the IC50 result was “Not Active” and the Ki result is recorded as “Not Active”.

For the compound `O=S(=O)([O-])CCS.[Na+]` [MESNA], the IC50 result is “Not Active” and the Ki result is recorded as “Not Active”.

Take `C#C[C@]1(O)CC[C@H]2[C@@H]3CCc4cc(OC)ccc4[C@H]3CC[C@@]21C` [MESTRANOL]: the IC50 result is given as “Not Active” and the Ki result is “Not Active”.

Consider `CC(=O)Nc1cccc(O)c1` [METACETAMOL], for which the IC50 entry is recorded as “Not Active” and the Ki entry is “Not Active”.

The target of another test is T1, Vasoactive intestinal polypeptide receptor 1 (Homo sapiens, UniProt P32241). Note: in other assays of this panel Not Active means under 50% inhibition at 10 µM.
T1 sequence (P32241 whole entry): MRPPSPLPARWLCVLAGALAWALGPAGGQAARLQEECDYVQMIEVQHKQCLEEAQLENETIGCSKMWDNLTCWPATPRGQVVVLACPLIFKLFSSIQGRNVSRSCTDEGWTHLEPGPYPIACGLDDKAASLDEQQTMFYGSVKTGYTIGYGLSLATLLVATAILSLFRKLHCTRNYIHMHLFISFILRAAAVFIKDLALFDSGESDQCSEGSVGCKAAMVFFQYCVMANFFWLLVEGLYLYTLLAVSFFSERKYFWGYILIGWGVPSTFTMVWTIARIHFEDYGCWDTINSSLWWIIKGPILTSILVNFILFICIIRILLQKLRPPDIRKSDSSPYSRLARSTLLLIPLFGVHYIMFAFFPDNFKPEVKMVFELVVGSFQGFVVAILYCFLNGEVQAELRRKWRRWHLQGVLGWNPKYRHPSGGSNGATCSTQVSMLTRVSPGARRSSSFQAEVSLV
It counts as cell membranes, Membrane. Particulars: ht-29.
As to `NC(=O)NO` [HYDROXYUREA], the IC50 result was “Not Active”.

`CC(C)Cc1ccc(C(C)C(=O)O)cc1` (stereo not given) [IBUPROFEN]: the IC50 result is listed as “Not Active”.

For the compound `COc1ccc2c(c1)c(CC(=O)O)c(C)n2C(=O)c1ccc(Cl)cc1` [INDOMETHACIN], the IC50 result is listed as “Not Active”.

With `CCc1c2c(nc3ccc(OC(=O)N4CCC(N5CCCCC5)CC4)cc13)-c1cc3c(c(=O)n1C2)COC(=O)[C@]3(O)CC` [IRINOTECAN], the IC50 entry is given as “Not Active”.

Take `CC(C(=O)O)c1cccc(C(=O)c2ccccc2)c1` (stereo not given) [KETOPROFEN]: the IC50 result is listed as “Not Active”.

As for `Nc1ccn([C@@H]2CS[C@H](CO)O2)c(=O)n1` [LAMIVUDINE], the IC50 entry is listed as “Not Active”.

In the case of `O=S(=O)([O-])CCS.[Na+]` [MESNA], the IC50 entry is given as “Not Active”.

With `C#C[C@]1(O)CC[C@H]2[C@@H]3CCc4cc(OC)ccc4[C@H]3CC[C@@]21C` [MESTRANOL], the IC50 entry is “Not Active”.

On to `CC(=O)Nc1cccc(O)c1` [METACETAMOL], for which the IC50 result is on record as “Not Active”.

System in the next test: not listed separately
As to the kind of experiment: DRUGMATRIX: Calcium Channel Type L, Phenylalkylamine radioligand binding (ligand: [3H] (-)-Desmethoxyverapamil (D-888)). It counts as cell membranes, Rattus norvegicus, Wistar, Brain, Membrane. Particulars: Not Active = under 50% inhibition at 10 µM.
Regarding `NC(=O)NO` [HYDROXYUREA], the IC50 entry is “Not Active” and the Ki entry is “Not Active”.

On to `CC(C)Cc1ccc(C(C)C(=O)O)cc1` (stereo not given) [IBUPROFEN], for which the IC50 entry was “Not Active” and the Ki entry is given as “Not Active”.

`COc1ccc2c(c1)c(CC(=O)O)c(C)n2C(=O)c1ccc(Cl)cc1` [INDOMETHACIN]: the IC50 result was “Not Active” and the Ki result is given as “Not Active”.

With `CCc1c2c(nc3ccc(OC(=O)N4CCC(N5CCCCC5)CC4)cc13)-c1cc3c(c(=O)n1C2)COC(=O)[C@]3(O)CC` [IRINOTECAN], the IC50 result is “Not Active” and the Ki result is “Not Active”.

As for `CC(C(=O)O)c1cccc(C(=O)c2ccccc2)c1` (stereo not given) [KETOPROFEN], the IC50 result is listed as “Not Active” and the Ki entry is recorded as “Not Active”.

Consider `Nc1ccn([C@@H]2CS[C@H](CO)O2)c(=O)n1` [LAMIVUDINE], for which the IC50 result is on record as “Not Active” and the Ki result is on record as “Not Active”.

Regarding `O=S(=O)([O-])CCS.[Na+]` [MESNA], the IC50 result is listed as “Not Active” and the Ki result is “Not Active”.

Turning to `C#C[C@]1(O)CC[C@H]2[C@@H]3CCc4cc(OC)ccc4[C@H]3CC[C@@]21C` [MESTRANOL], the IC50 result is reported as “Not Active” and the Ki result was “Not Active”.

For the compound `CC(=O)Nc1cccc(O)c1` [METACETAMOL], the IC50 entry was “Not Active” and the Ki entry is on record as “Not Active”.

The target of a further test is T2, Adenosine receptor A3 (Homo sapiens, UniProt P0DMS8).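 Note: radioligand binding assay with AB-MECA serving as the labeled ligand; in other assays of this panel Not Active means under 50% inhibition at 10 µM.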
T2 sequence (P0DMS8 whole entry): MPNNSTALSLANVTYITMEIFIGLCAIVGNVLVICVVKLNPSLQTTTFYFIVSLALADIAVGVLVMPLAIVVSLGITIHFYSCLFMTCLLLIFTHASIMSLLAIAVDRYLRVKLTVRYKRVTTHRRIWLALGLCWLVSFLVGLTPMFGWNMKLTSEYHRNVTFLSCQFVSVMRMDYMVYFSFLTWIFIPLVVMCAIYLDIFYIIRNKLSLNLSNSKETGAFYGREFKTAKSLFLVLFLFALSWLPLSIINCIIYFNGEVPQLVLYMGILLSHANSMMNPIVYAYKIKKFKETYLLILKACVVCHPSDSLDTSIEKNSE
The class given is cell membranes, CHO-K1, Membrane. Particulars: cho-k1.
As to `NC(=O)NO` [HYDROXYUREA], the IC50 entry is on record as “Not Active”.

Turning to `CC(C)Cc1ccc(C(C)C(=O)O)cc1` (stereo not given) [IBUPROFEN], the IC50 result is “Not Active”.

Take `COc1ccc2c(c1)c(CC(=O)O)c(C)n2C(=O)c1ccc(Cl)cc1` [INDOMETHACIN]: the IC50 entry is recorded as “Not Active”.

For `CCc1c2c(nc3ccc(OC(=O)N4CCC(N5CCCCC5)CC4)cc13)-c1cc3c(c(=O)n1C2)COC(=O)[C@]3(O)CC` [IRINOTECAN], the IC50 result is “Not Active”.

Regarding `CC(C(=O)O)c1cccc(C(=O)c2ccccc2)c1` (stereo not given) [KETOPROFEN], the IC50 result was “Not Active”.

Turning to `Nc1ccn([C@@H]2CS[C@H](CO)O2)c(=O)n1` [LAMIVUDINE], the IC50 entry is on record as “Not Active”.

As for `O=S(=O)([O-])CCS.[Na+]` [MESNA], the IC50 result is listed as “Not Active”.

`C#C[C@]1(O)CC[C@H]2[C@@H]3CCc4cc(OC)ccc4[C@H]3CC[C@@]21C` [MESTRANOL]: the IC50 result was “Not Active”.

As to `CC(=O)Nc1cccc(O)c1` [METACETAMOL], the IC50 entry was “Not Active”.

The target in the next test is Sodium-dependent dopamine transporter (Homo sapiens, UniProt Q01959). The test can be described thus: DRUGMATRIX: Dopamine Transporter radioligand binding (ligand: [125I] RTI-55). Particulars: cho-k1; Not Active = under 50% inhibition at 10 µM. The class given is cell membranes, CHO-K1, Membrane.
Sequence of Sodium-dependent dopamine transporter (Q01959 whole entry): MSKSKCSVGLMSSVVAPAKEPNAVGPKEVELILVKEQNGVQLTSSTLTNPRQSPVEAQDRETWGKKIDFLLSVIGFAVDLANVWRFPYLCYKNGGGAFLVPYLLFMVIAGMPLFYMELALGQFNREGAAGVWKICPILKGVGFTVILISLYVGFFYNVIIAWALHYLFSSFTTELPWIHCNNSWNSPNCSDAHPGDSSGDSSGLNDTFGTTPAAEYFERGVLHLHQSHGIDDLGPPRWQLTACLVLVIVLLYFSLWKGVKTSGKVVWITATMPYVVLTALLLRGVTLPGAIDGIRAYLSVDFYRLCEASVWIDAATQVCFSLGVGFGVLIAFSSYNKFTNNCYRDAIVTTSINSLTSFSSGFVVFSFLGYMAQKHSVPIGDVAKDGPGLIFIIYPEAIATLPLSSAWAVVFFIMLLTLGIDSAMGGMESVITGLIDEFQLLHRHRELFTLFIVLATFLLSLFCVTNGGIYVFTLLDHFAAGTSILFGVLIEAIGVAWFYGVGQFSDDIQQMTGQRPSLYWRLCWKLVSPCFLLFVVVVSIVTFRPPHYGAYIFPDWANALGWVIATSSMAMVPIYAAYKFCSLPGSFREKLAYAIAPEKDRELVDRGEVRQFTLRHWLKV
`NC(=O)NO` [HYDROXYUREA]: the IC50 entry is “Not Active”.

As to `CC(C)Cc1ccc(C(C)C(=O)O)cc1` (stereo not given) [IBUPROFEN], the IC50 entry is on record as “Not Active”.

Take `COc1ccc2c(c1)c(CC(=O)O)c(C)n2C(=O)c1ccc(Cl)cc1` [INDOMETHACIN]: the IC50 entry was “Not Active”.

As for `CCc1c2c(nc3ccc(OC(=O)N4CCC(N5CCCCC5)CC4)cc13)-c1cc3c(c(=O)n1C2)COC(=O)[C@]3(O)CC` [IRINOTECAN], the IC50 entry was “Not Active”.

Take `CC(C(=O)O)c1cccc(C(=O)c2ccccc2)c1` (stereo not given) [KETOPROFEN]: the IC50 entry is “Not Active”.

On to `Nc1ccn([C@@H]2CS[C@H](CO)O2)c(=O)n1` [LAMIVUDINE], for which the IC50 entry was “Not Active”.

For the compound `O=S(=O)([O-])CCS.[Na+]` [MESNA], the IC50 result is “Not Active”.

Consider `C#C[C@]1(O)CC[C@H]2[C@@H]3CCc4cc(OC)ccc4[C@H]3CC[C@@]21C` [MESTRANOL], for which the IC50 entry is “Not Active”.

As for `CC(=O)Nc1cccc(O)c1` [METACETAMOL], the IC50 entry is reported as “Not Active”.

System in a further test: not listed separately
As to the kind of experiment: DRUGMATRIX: Nicotinic Acetylcholine radioligand binding (ligand: [125I] Epibatidine). The class given is cell membranes, Membrane. Particulars: imr-32; Not Active = under 50% inhibition at 10 µM.
As for `NC(=O)NO` [HYDROXYUREA], the IC50 entry is “Not Active” and the Ki entry was “Not Active”.

For `CC(C)Cc1ccc(C(C)C(=O)O)cc1` (stereo not given) [IBUPROFEN], the IC50 entry was “Not Active” and the Ki entry is reported as “Not Active”.

Regarding `COc1ccc2c(c1)c(CC(=O)O)c(C)n2C(=O)c1ccc(Cl)cc1` [INDOMETHACIN], the IC50 entry was “Not Active” and the Ki entry is recorded as “Not Active”.

Take `CCc1c2c(nc3ccc(OC(=O)N4CCC(N5CCCCC5)CC4)cc13)-c1cc3c(c(=O)n1C2)COC(=O)[C@]3(O)CC` [IRINOTECAN]: the IC50 result is listed as “Not Active” and the Ki result is listed as “Not Active”.

On to `CC(C(=O)O)c1cccc(C(=O)c2ccccc2)c1` (stereo not given) [KETOPROFEN], for which the IC50 result is “Not Active” and the Ki result is “Not Active”.

In the case of `Nc1ccn([C@@H]2CS[C@H](CO)O2)c(=O)n1` [LAMIVUDINE], the IC50 entry is reported as “Not Active” and the Ki result is on record as “Not Active”.

On to `O=S(=O)([O-])CCS.[Na+]` [MESNA], for which the IC50 result was “Not Active” and the Ki result is recorded as “Not Active”.

For the compound `C#C[C@]1(O)CC[C@H]2[C@@H]3CCc4cc(OC)ccc4[C@H]3CC[C@@]21C` [MESTRANOL], the IC50 entry is “Not Active” and the Ki result is “Not Active”.

Turning to `CC(=O)Nc1cccc(O)c1` [METACETAMOL], the IC50 entry is listed as “Not Active” and the Ki result is on record as “Not Active”.

In a further test the target is Melanocortin receptor 3 (Homo sapiens, UniProt P41968). It counts as cell membranes, Membrane. The settings on record: hek293. Note: in other assays of this panel Not Active means under 50% inhibition at 10 µM.
Sequence of Melanocortin receptor 3 (P41968 whole entry): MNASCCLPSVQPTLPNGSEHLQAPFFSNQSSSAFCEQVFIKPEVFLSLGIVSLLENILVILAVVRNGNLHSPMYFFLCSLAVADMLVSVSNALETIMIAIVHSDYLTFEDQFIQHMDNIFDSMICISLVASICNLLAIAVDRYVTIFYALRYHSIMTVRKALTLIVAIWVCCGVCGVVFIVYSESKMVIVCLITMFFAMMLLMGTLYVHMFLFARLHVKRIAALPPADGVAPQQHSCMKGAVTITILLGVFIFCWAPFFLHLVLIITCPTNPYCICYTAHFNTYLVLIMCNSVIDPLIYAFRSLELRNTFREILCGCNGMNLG
As to `NC(=O)NO` [HYDROXYUREA], the IC50 entry is recorded as “Not Active”.

With `CC(C)Cc1ccc(C(C)C(=O)O)cc1` (stereo not given) [IBUPROFEN], the IC50 entry was “Not Active”.

In the case of `COc1ccc2c(c1)c(CC(=O)O)c(C)n2C(=O)c1ccc(Cl)cc1` [INDOMETHACIN], the IC50 entry was “Not Active”.

Take `CCc1c2c(nc3ccc(OC(=O)N4CCC(N5CCCCC5)CC4)cc13)-c1cc3c(c(=O)n1C2)COC(=O)[C@]3(O)CC` [IRINOTECAN]: the IC50 entry is “Not Active”.

For the compound `CC(C(=O)O)c1cccc(C(=O)c2ccccc2)c1` (stereo not given) [KETOPROFEN], the IC50 entry is on record as “Not Active”.

For the compound `Nc1ccn([C@@H]2CS[C@H](CO)O2)c(=O)n1` [LAMIVUDINE], the IC50 result is listed as “Not Active”.

For `O=S(=O)([O-])CCS.[Na+]` [MESNA], the IC50 entry is on record as “Not Active”.

For `C#C[C@]1(O)CC[C@H]2[C@@H]3CCc4cc(OC)ccc4[C@H]3CC[C@@]21C` [MESTRANOL], the IC50 entry was “Not Active”.

In the case of `CC(=O)Nc1cccc(O)c1` [METACETAMOL], the IC50 entry was “Not Active”.
